# Data published in patent US20220273658A1, “SMALL MOLECULE LIVER X RECEPTOR MODULATORS AND USES THEREOF” (University of Houston System, priority 2019, published 2022).
# Columns and labels:
# LXR proteins = molecular target: T1, LXR proteins (Homo sapiens, UniProt P55055); assay: LXR protein levels after long-term treatment of pancreatic cancer cells; assay type: cell-based; details: long-term treatments
# T1 construct: expression of LXR proteins in different pancreatic cancer cell lines following long-term treatments; endogenous in cells; host or cells: pancreatic cancer cell lines (BxPC-3, MIA PaCa-2, PANC-1 named elsewhere)
# Protocol: To elucidate mechanisms of inverse agonism by the novel ligands, TR-FRET experiments were conducted to determine the effects of 1E5 and 3A4 on the recruitment of NR co-activators and co-repressors. […] In addition to their functions as inverse agonists, extended treatments with 1E5 and 3A4 also destabilized or decreased LXR proteins.
# LXR-LBD = assay: differential scanning fluorimetry; assay type: binding
# From the text: The synthesis and characterization of KD-01-39, a derivative of 3A4, have not been described previously.
# GLS1 and GOT2 = assay: qPCR of genes involved in glutamine metabolism; assay type: cell-based, human; details: PDAC cells
# From the text: (§1) TCA cycle intermediates act as anaplerotic substrate for gluconeogenesis and lipogenesis. […] GOT2 converts glutamine-derived glutamate to alpha-KG. During this process oxaloacetate is converted to aspartate which is required to maintain redox homeostasis. Studies have shown that inhibition of GOT2 in PDAC promotes senescence.
# pancreatic cancer cells = assay: metabolomic analysis using mass spectroscopy in pancreatic cancer cells; assay type: cell-based, human
# Protocol: To further characterize the mechanisms of action of novel LXR modulators 1E5 and 3A4, metabolomic and transcriptomic analysis of pancreatic cancer cells were conducted in response to treatment. […] PDAC tumors have altered metabolism to support its growth and survival. Previous studies have reported that Kras upregulates the non-canonical use of glutamine to maintain NADPH/NADP+ ratio which in turn regulates redox homeostasis. This unconventional use of glutamine by PDAC cells fuel cancer cell proliferation and survival. Glutamine metabolism in PDAC has two unique functions: 1. Glutamine-derived Glutamate is used for glutathione (GSH) biosynthesis. 2. Glutamine facilitates generation of reducing equivalents in the form of NADPH. In PDAC mitochondria, glutamine is converted to glutamate by glutaminase enzyme (GLS1). This glutamine derived glutamate is conventionally converted to alpha-ketoglutarate by glutamate dehydrogenase (GLUD1) to fuel citric acid cycle. However, in PDAC cells glutamate is converted to aspartate in cytosol which is converted to malic acid and NADPH is produced during this process. This process is essential to maintain redox homeostasis in the tumor. However, this non-canonical use of glutamine is dispensable in non-malignant cells. Therefore, targeting GLS1 to decrease the bioavailability of glutamate to act as source of nitrogen and carbon for the synthesis of amino acids and nucleic acids is a viable strategy to target PDAC tumors. […] The effect of 1E5 is similar to BPTES, a potent GLS1 inhibitor.
# as §1
# (§2) To determine if 1E5 and 3A4 can induce apoptosis, PDAC cells were treated with the LXR ligands and subjected to pro-apoptotic caspase cleavage analysis. […] Metabolomic profiling following treatments with the two ligands indicated the activation of two distinct cell death mechanisms. Ferroptosis is a non-apoptotic form of cell death which is characterized by accumulation of lipid peroxides by loss of glutathione peroxidase 4 (GPX4) activity. It can also be induced by accumulation of intracellular iron and depletion of reduced glutathione (GSH). GPX4 is an anti-oxidant enzyme involved in conversion of PUFA peroxides to PUFA alcohols. GSH is a critical cofactor of GPX4 and acts as a reducing agent to reduce the lipid peroxides. Therefore, direct inhibition of GPX4 activity or reduction in GSH levels trigger ferroptosis. The second mechanism of inducing ferroptosis is accumulation of polyunsaturated fatty acids (PUFAs) in cells. Studies have shown that PUFAs are the most susceptible lipids to peroxidation.
# Expression profiles of ferroptosis genes in RNAseq data following 1E5 treatment were also consistent with its pro-ferroptotic actions. […] Polyamines are amino-acid derived polycationic alkylamines that are required for the growth of cells. SAT1 catalyzes the acetylation of spermidine and spermine to form N-acetylspermidine and N-acetylspermine respectively. […] SAT1 induces ferroptosis by upregulating the peroxidation of PUFA arachidonic acid. Ceramides are sphingolipids consisting of sphingosine and fatty acid acyl chain. Cellular stress leads to upregulation of ceramide synthesis which mediate caspase-dependent apoptosis. Accumulation of ceramides/hexosylceramides in the mitochondria leads to the formation of channel like structures in the mitochondrial outer membrane which increases the permeability of pro-apoptotic proteins such as cytochrome c. ER stress is also known to activate de-novo synthesis of ceramides and induce apoptosis by increasing the flow of Ca ions and upregulating the unfolded protein stress response. […]
# human PDAC cell lines = assay: cell viability response curves with increasing concentrations; assay type: cell-based
# MDA-MB-231 cells = assay: breast cancer cell proliferation; assay type: cell-based
# From the text: (§3) The inhibitory effects of LXR ligands in breast cancer cells have been shown previously. […] The observed decreases in LXR protein levels were not affected by proteasome inhibitor MG132.
# PDAC cells = assay: pro-apoptotic caspase cleavage analysis; assay type: cell-based, human
# Protocol: as §2
# Accumulation of C18 ceramides in the mitochondria leads to the recruitment of auto phagosomes in mitochondria and induces LC3-ceramide dependent lethal mitophagy. […] Darkened circles indicate increases and the size of the circle corresponds to the significance of changes.
# LXR in MDA-MB-231 cells = assay: western blot of LXR protein levels; assay type: cell-based
# From the text: as §3
# [1] = tested on: LXR proteins in MCF-7 cells; assay: western blot of LXR protein levels; assay type: cell-based
# From the text: as §3
# T1 sequence (P55055 whole entry): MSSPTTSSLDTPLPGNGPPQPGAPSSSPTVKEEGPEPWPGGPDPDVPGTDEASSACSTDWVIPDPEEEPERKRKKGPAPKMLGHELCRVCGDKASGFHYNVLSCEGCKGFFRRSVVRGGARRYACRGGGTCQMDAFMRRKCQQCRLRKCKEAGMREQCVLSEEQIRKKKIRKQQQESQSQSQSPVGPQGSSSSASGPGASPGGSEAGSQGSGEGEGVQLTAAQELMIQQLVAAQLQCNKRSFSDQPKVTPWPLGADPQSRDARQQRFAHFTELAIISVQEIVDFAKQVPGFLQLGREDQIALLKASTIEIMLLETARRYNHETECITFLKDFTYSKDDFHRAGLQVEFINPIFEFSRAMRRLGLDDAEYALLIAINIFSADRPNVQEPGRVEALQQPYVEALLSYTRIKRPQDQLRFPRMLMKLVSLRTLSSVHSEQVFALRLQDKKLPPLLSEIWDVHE
smiles,measurement,setting,value
"O=c1cc(-c2ccccc2)nc(Nc2cccc(C(F)(F)F)c2)[nH]1 [Compound 1E5, 6-phenyl-2-{[3-(trifluoromethyl)phenyl]amino}-3,4-dihydropyrimidin-4-one]",LXR protein levels,LXR proteins,decreased LXR protein levels
same,LXR-LBD structure and dye dissociation with increasing temperature,LXR-LBD,disrupted the LBD structure
same,expression of GLS1 and GOT2,GLS1 and GOT2,downregulated the expression
same,glutamate levels (mass spectroscopy),pancreatic cancer cells,decreases in glutamate levels
same,glutamine biosynthesis,pancreatic cancer cells,inhibited glutamine biosynthesis
same,level of glutathione (GSH),pancreatic cancer cells,decreased level of GSH
same,"levels of TCA cycle intermediates (alpha-KG, citrate and fumarate)",pancreatic cancer cells,downregulated
same,levels of asparagine and aspartate,pancreatic cancer cells,decreased the levels
same,levels of polyamine metabolites,pancreatic cancer cells; PANC-1,"depletion of spermidine and spermine and accumulation of putrescine, N-acetylspermidine and N-acetylspermine"
same,levels of polyunsaturated fatty acids (PUFAs),pancreatic cancer cells; PANC-1,increased levels of PUFAs
same,potency in response curves compared to GW3965,human PDAC cell lines,more potent activity as compared to GW3965
same,proliferation of MDA-MB-231 cells,MDA-MB-231 cells,inhibited
same,pro-apoptotic caspase cleavage,PDAC cells,did not
same,LXR protein levels (degradation),LXR in MDA-MB-231 cells,degraded LXR
same,LXR protein levels (degradation),[1],act as degraders of LXR proteins
